Results published in US12233129B2, “Methods and compositions for the treatment of cancer” (priority 2019, dated 2025).
“Also recorded” adds a separate entry of the source.

Tests used:
[1] = tested on: SW-48 (WT-p53) colon cancer cells; assay: Cell viability / clonogenic survival with and without mot-2 inhibitor MKT-077; type: cell-based, human; design: dose or concentration left out as unconfirmed; conditions: VTD with mot-2 inhibitor MKT-077, 72 hours
Experimental: We decided to confirm whether VTD-induced tumor suppression is indeed mediated via the UBXN2A-mot-2-p53 axis (FIG. 18H). After initial verification with WB (FIG. 18A), HCT-116 (p53+/+ and p53 −/−) and LoVo were treated with VTD for 24, 48, and 72 hours (FIG. 18B-D). […] We defined this phenomenon as a delayed cytotoxic response, since it occurs through UBXN2A transcription, as previously described for other anti-cancer agents. […] In the second set of experiments, we treated two stable UBXN2A silenced clones of HCT-116 along with controls with VTD. […] Staurosporine-treated cells were used as a positive control (S4F). […] Finally, to understand the contribution of mot-2 to the anti-cancer mechanism of VTD, we used a mot-2 inhibitor known as MKT-077 [7] along with VTD in well-differentiated SW-48 (WT-p53) colon cancer cells for 72 hours. Due to the critical role of mot-2 in the mitochondria, we could not use a silencing strategy for mot-2 in this set of experiments.
FIG. 18: Veratridine (VTD) functions via the UBXN2A-mot-2-p53 axis. (A) WB confirmed the presence and the absence of p53 protein in HCT-116 p53^(+/+) and HCT-116 p53^(−/−) cancer cell lines, respectively. […] (F) In another set of experiments, UBXN2A-silenced cells were treated with VTD (100, 200, and 300 μM) for 24 hours. Cells were then labelled with Sytox Red followed by flow cytometry analysis. […] (G) SW48 well-differentiated colon cancer cells with WT-p53 were treated with MKT-077 (5 mg/ml), an mot-2 inhibitor, along with VTD for 72 hours. […] (H) This flowchart recapped the sequence of proteins which activate and function upon VTD exposure to decrease cell viability. The data is shown as mean±SEM of three independent experiments (n=3) in triplicate where *p<0.05 using Benferroni's modified student's t-test.

LoVo [2] = assay: Annexin V early apoptosis, VTD plus etoposide; type: cell-based, human; conditions: VTD 10-200 μM plus etoposide 5 μM, 24 hours
Experimental: (§1) The viability of cells was calculated as % of control.
(§2) Cells were then stained with Annexin V apoptotic marker.

HCT-116 [3] = assay: Annexin V early apoptosis, VTD plus etoposide; type: cell-based, human; conditions: VTD 10-200 μM plus etoposide 5 μM, 24 hours
Experimental: as §1, §2

LoVo [4] = tested on: LoVo
Experimental: (§3) Besides the cell viability assay, we decided to measure the apoptotic activity in the above combination therapy.
(§4) Cells were treated with 5-FU (5-100 μM) and etoposide (1-50 μM) along with VTD (30 and 100 μM respectively) in two different set of experiments for 24 hours.
(§5) An MTT (3[4, 5-dimethylthiazol-2-yl]-2, 5-diphenyltetrazolium bromide) assay was performed to measure the viability of cells. Briefly, cells were seeded at a density of 10×10^3 cells per well in phenol-red free growth media. After 24 hours, cells were treated with various concentrations of VTD±5-FU or etoposide. After incubation, an MTT dye was added to the cells for 2-4 hours. The absorbance of samples was measured at 630 nm using an EXL808 absorption spectrophotometer (Biotek, Winooski). The viability of cells was calculated as % of control. Cell detachment and clonogenic survival assays were conducted as previously described. Early apoptosis, caspase-3, cleaved PARP and Sytox Red (Life Technology, NY, USA) were measured by the Accuri C6 flow cytometer system (BD Pharmingen, MD, USA).[54]
(§6) (A-H) (A-C) HCT-116 and (D-F) LoVo were treated with VTD (10-300 μM) for 24, 48, and 72 hours. A suboptimal dose of Etoposide (ETO) ([…]) was added to cells for the last 24 hours only. The viability of cells was determined as % of control (untreated cells) using an MTT assay. […] (G-H) HCT-116 (G) and LoVo (H) cells were treated with VTD (10-200 μM) and a suboptimal dose of ETO (5 μM) for 24 hours. Cells were then stained with Annexin V apoptotic marker. […] (I-L) HCT-116 and LoVo cells were treated with different doses of 5-FU (5-100 μM, I-J) and ETO (1-50 μM, K-L) along with VTD (30 μM and 100 μM respectively) for 24 hours.

HCT-116 [5] = tested on: HCT-116
Experimental: as §3, §4, §5, §6

UBXN2A = assay: RT-PCR and western blot of UBXN2A in etoposide-treated HCT-116 cells; type: cell-based, human
p53 = assay: Western blot of p53 in cytoplasm and nuclear fractions of etoposide-treated HCT-116 cells; type: cell-based, human; conditions: 20 and 50 μM etoposide, 24 h
Text: Small molecules, p53 c-terminus peptides, and silenced mot-2 abrogate mot-2-p53 complexes, resulting in p53 nuclear localization. Because UBXN2A is capable of releasing p53 from mot-2, we decided to determine whether UBXN2A can lead to p53 nuclear accumulation in a similar mechanism. HCT-116 cells were transiently transfected with different amounts of UBXN2A plasmid. Exogenous UBXN2A was detected dominantly in the cytoplasm fraction (FIG. 4a), and, therefore, it is an ideal model to identify the cellular consequences of UBXN2A gain-of-function. After 48 h, nuclear and cytoplasmic fractions were collected, followed by WB analysis (FIGS. 4a-d). […] Similar to several previously reported scenarios,^23 co-upregulation of UBXN2A with p53 may be essential to inhibiting mot-2 and delivering maximum p53 into nuclei during the initiation of genotoxic stress. Similar results were obtained in response to single DNA-strand damage produced by UVB irradiation. In the next step, we decided to determine whether UBXN2A increases the transcriptional activities of p53. We found overexpression of UBXN2A led to upregulation of BAX protein^24 (FIG. 4g). In addition, the level of cleaved PARP increased in the presence of overexpressed UBXN2A (FIG. 4g). […]

p53-mot-2 = molecular target: T1, p53-mot-2 (Homo sapiens, UniProt P38646); assay: In vitro competition immunoprecipitation assay (mot-2, p53, recombinant UBXN2A); type: binding
T1 construct: purchased SignalChem (Richmond, CANADA)
T1 sequence (P38646 47-679): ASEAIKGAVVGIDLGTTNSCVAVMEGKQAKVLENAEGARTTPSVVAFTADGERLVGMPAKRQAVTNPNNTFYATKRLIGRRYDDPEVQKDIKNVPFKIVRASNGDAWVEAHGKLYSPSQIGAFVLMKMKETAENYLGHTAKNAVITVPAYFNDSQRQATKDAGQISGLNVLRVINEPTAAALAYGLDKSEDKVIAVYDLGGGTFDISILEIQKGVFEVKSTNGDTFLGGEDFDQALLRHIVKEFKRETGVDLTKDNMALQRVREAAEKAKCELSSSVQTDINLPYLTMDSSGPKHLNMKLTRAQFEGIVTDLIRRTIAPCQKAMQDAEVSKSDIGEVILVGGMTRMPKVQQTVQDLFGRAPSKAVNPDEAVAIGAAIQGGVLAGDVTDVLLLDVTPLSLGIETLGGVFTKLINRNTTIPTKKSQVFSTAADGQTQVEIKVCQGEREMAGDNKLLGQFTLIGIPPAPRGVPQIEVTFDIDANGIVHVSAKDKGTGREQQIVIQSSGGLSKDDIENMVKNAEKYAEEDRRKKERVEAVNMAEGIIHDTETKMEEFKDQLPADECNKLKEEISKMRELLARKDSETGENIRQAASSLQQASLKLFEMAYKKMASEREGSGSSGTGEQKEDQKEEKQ
Text: Because mot-2 binds to the […] of p53 and sequesters WT-p53 in the cytoplasm, we asked whether binding UBXN2A to mot-2 can alter mot-2's affinity for p53. […] That is, the two complexes might be mutually exclusive. To further determine whether the binding of mot-2 to UBXN2A decreases the binding of mot-2 to p53, we performed two set of immunoprecipitation experiments with recombinant UBXN2A. FIG. 3a describes an in vitro competition immunoprecipitation assay system containing mot-2, p53, and an increasing amount of recombinant UBXN2A. […] The lowest binding between p53-mot-2 was observed when UBXN2A and mot-2 were present in approximately a 1:1 ratio by their molecular mass (lane 1 versus lane 2). In FIG. 3b, cytosolic fractions enriched with mot-2 and p53 proteins (fractions 3-5, FIG. 2e) were incubated with recombinant GST-tag human UBXN2A protein. After the initial 2 h of incubation, samples were subjected to immunoprecipitation with anti-p53 antibodies. GST-UBXN2A and endogenous mot-2 ratio was 2.5:1 in the reaction. […] Next, we decided to verify whether endogenous UBXN2A can interfere with mot-2-p53 binding using an ex vivo model. […]
FIG. 3 UBXN2A and p53 compete for binding to mot-2. […] Mot-2 proteins were eluted from the beads and analyzed by western blotting using an anti-mot-2 antibody. […]

CCn1c(=O)/c(=C2\Sc3ccccc3N2C)s/c1=C\c1cccc[n+]1CC.[Cl-] [MKT-077]
cell viability / colony number [1]: neutralizes the cytotoxic effect of VTD

COc1cc([C@@H]2c3cc4c(cc3[C@@H](O[C@@H]3O[C@@H]5CO[C@@H](C)O[C@H]5[C@H](O)[C@H]3O)[C@H]3COC(=O)[C@H]23)OCO4)cc(OC)c1O [etoposide]
early apoptosis (Annexin V) (LoVo [2]): significantly sensitizes | early apoptosis (Annexin V) (HCT-116 [3]): significantly sensitizes | cell viability (MTT), combination (LoVo [4]): significantly enhanced the VTD-induced decrease in cell viability | effectiveness of etoposide alone (MTT) (LoVo [4]; LoVo versus HCT-116, time-dependent): more effectiveness in well differentiated cells (LoVo) than HCT-116 cells | cell viability (MTT), combination (HCT-116 [5]): significantly enhanced the VTD-induced decrease in cell viability | UBXN2A protein (UBXN2A; etoposide 20 and 50 μM, 24 h): increased; also recorded: significant upregulation of UBXN2A | UBXN2A mRNA (UBXN2A; etoposide 24 h): increased; also recorded: enhances transcription of UBXN2A | p53 upregulation and nuclear localization (p53): upregulation and nuclear localization of p53 becomes significant

B1: recombinant human UBXN2A: recombinant GST-tag human UBXN2A protein (SignalChem) (protein, UniProt P68543 1-259, looked up)
UBX domain-containing protein …: MKDVDNLKSIKEEWVCETGSDNQPLGNNQQSNCEYFVDSLFEEAQKVSSKCVSPAEQKKQVDVNIKLWKNGFTVNDDFRSYSDGASQQFLNSIKKGELPSELQGIFDKEEVDVKVEDKKNEICLSTKPVFQPFSGQGHRLGSATPKIVSKAKNIEVENKNNLSAVPLNNLEPITNIQIWLANGKRIVQKFNITHRVSHIKDFIEKYQGSQRSPPFSLATALPVLRLLDETLTLEEADLQNAVIIQRLQKTASFRELSEH
modifications: GST tag
mot-2 protein-bound p53 (p53-mot-2; HCT-116 cytosolic fractions 3-5, GST-UBXN2A to endogenous mot-2 ratio 2.5:1, 2 h): decreased the amount of mot-2 protein-bound p53 | mot-2 pulled down by anti-p53 antibodies (p53-mot-2; recombinant GST-p53, GST-mot-2, increasing amounts of UBXN2A): decreased the intensity of mot-2 bands
